Experimental data reported in ChEMBL document CHEMBL1933042, “Discovery of potent and selective matrix metalloprotease 12 inhibitors for the potential treatment of chronic obstructive pulmonary disease (COPD)” (Bioorg Med Chem Lett, 2012).
Converted amounts (≈) assume the structure as drawn.

Legend:
Homo sapiens [1] = species on record: Homo sapiens; assay: Selectivity ratio of IC50 for human MMP-13 to IC50 for human MMP-12
Homo sapiens [2] = species on record: Homo sapiens; assay: Selectivity ratio of IC50 for human MMP-8 to IC50 for human MMP-12
[3] = target: Macrophage metalloelastase (Oryctolagus cuniculus, UniProt P79227); assay: Inhibition of rabbit MMP-12
Sequence of Macrophage metalloelastase (Oryctolagus cuniculus, UniProt P79227) (P79227 whole entry): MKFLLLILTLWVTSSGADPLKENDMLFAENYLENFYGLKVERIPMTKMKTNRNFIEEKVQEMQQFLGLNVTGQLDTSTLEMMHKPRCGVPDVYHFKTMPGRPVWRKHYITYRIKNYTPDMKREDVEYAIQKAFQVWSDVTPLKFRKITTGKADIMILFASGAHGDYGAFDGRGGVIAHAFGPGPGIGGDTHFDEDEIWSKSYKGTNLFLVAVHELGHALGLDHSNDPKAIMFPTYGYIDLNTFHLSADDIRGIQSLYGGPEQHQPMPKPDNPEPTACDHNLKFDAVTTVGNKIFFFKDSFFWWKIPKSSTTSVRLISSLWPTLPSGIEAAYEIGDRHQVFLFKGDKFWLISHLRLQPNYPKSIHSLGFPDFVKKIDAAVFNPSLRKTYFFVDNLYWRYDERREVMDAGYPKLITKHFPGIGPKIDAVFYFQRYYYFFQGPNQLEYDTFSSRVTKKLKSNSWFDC

[4] = Oral bioavailability in C57BL/6 mouse at 10 mg/kg; type: ADME, organism-based; settings: in vivo
Mus musculus [5] = assay: Inhibition of human recombinant MMP12-induced lung inflammation in C57BL/6 mouse assessed as reduction in bronchoalveolar lavage inflammation at 10 mg/kg, po bid administered at 2 hrs prior to and 12 hrs post challenge measured 24 hrs after last challenge relative to vehicle treated control; type: functional; settings: C57BL/6, Lung
Mus musculus [6] = assay: Inhibition of human recombinant MMP12-induced lung inflammation in C57BL/6 mouse assessed as reduction in bronchoalveolar lavage inflammation at 5 mg/kg, po bid at 2 hrs prior to and 12 hrs post challenge measured 24 hrs after last challenge relative to vehicle treated control; type: functional; settings: C57BL/6, Lung
[7] = target: Matrix metalloproteinase-12 (Canis lupus familiaris, UniProt A9X4R8); assay: Inhibition of dog MMP-12
Sequence of Matrix metalloproteinase-12 (A9X4R8 whole entry): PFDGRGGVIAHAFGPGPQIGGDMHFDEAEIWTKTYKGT

[8] = Inhibition of sheep MMP-12; set-up: species or system Ovis aries
[9] = Half life in C57BL/6 mouse at 10 mg/kg, po; type: ADME, organism-based; set-up: dose 10 mg/kg, route oral; settings: in vivo
Neutrophil collagenase = Neutrophil collagenase (Homo sapiens, UniProt P22894); assay: Inhibition of human MMP-8
Sequence of Neutrophil collagenase (P22894 whole entry): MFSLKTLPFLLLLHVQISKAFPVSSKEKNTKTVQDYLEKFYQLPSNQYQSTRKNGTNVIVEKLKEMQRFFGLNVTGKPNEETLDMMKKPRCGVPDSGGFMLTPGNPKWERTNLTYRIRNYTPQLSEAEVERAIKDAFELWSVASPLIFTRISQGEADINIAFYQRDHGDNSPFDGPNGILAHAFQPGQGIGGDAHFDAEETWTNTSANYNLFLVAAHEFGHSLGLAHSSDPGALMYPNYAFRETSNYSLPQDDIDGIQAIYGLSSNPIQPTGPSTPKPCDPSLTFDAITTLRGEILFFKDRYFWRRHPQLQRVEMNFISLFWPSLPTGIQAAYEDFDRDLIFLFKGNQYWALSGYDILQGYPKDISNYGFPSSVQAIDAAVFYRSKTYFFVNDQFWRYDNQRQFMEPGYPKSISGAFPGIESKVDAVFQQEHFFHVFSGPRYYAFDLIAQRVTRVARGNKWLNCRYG

[10] = target: Voltage-gated inwardly rectifying potassium channel KCNH2 (Homo sapiens, UniProt Q12809); assay: Inhibition of human ERG
Sequence of Voltage-gated inwardly rectifying potassium channel KCNH2 (Q12809 whole entry): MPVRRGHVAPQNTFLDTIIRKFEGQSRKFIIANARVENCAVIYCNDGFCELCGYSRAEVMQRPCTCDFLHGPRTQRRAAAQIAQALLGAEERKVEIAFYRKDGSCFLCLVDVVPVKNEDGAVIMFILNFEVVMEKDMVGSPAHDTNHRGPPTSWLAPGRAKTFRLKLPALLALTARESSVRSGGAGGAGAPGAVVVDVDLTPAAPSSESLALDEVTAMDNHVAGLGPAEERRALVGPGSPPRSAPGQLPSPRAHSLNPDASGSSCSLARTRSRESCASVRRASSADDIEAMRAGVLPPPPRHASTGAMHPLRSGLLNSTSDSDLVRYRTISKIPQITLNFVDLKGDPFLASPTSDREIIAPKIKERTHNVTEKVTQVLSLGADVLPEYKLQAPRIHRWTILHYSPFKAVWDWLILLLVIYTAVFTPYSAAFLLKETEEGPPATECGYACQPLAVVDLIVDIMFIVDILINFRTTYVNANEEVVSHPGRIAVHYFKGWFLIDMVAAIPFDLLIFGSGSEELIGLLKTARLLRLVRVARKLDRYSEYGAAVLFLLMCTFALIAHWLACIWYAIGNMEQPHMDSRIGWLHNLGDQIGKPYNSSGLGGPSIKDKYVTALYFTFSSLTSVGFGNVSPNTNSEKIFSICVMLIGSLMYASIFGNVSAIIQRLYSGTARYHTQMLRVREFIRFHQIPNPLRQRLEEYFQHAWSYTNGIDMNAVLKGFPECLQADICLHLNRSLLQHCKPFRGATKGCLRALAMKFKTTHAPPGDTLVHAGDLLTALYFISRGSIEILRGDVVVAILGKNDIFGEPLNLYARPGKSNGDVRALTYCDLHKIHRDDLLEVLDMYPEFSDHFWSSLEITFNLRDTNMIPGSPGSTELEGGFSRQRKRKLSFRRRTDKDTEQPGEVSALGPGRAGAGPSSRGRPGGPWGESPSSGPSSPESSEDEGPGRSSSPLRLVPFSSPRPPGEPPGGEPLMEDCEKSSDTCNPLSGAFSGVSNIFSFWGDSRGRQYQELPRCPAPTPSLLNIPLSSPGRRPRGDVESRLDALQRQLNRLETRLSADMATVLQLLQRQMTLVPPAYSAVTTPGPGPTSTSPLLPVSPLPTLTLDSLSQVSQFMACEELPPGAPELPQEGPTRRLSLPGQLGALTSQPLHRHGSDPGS

[11] = Inhibition of monkey MMP-12; set-up: species or system Macaca mulatta
Collagenase 3 = Collagenase 3 (Homo sapiens, UniProt P45452); assay: Inhibition of human MMP-13
[12] = target: Macrophage metalloelastase (Mus musculus, UniProt P34960); assay: Inhibition of mouse MMP-12
Sequence of Macrophage metalloelastase (Mus musculus, UniProt P34960) (P34960 whole entry): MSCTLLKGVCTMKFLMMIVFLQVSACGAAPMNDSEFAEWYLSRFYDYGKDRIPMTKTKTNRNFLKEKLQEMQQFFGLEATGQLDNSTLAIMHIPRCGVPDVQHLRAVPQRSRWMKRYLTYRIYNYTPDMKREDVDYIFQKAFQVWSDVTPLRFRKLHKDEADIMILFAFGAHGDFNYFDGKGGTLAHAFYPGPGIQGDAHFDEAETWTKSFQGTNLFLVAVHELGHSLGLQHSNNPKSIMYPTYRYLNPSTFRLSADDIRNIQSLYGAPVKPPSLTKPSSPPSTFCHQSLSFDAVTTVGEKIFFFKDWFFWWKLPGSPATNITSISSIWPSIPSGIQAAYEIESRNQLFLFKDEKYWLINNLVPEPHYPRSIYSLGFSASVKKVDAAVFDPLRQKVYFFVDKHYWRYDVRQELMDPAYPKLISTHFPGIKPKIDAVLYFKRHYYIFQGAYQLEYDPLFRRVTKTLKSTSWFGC

Stromelysin-1 = Stromelysin-1 (Homo sapiens, UniProt P08254); assay: Inhibition of human MMP-3
Sequence of Stromelysin-1 (P08254 whole entry): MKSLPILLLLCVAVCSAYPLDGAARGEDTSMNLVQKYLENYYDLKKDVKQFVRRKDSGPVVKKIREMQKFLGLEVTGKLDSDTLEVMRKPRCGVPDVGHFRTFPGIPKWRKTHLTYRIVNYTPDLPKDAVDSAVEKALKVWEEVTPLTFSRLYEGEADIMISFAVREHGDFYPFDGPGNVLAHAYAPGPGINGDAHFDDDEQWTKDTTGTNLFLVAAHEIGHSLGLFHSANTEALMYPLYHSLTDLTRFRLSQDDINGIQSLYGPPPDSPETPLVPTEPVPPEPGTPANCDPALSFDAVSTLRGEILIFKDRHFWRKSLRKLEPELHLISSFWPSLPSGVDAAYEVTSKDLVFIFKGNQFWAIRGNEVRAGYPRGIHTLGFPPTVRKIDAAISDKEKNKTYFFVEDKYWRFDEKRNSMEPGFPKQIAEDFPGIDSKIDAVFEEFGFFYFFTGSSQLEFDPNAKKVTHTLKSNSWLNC

[13] = target: 72 kDa type IV collagenase (Homo sapiens, UniProt P08253); assay: Inhibition of human MMP-2
Sequence of 72 kDa type IV collagenase (P08253 whole entry): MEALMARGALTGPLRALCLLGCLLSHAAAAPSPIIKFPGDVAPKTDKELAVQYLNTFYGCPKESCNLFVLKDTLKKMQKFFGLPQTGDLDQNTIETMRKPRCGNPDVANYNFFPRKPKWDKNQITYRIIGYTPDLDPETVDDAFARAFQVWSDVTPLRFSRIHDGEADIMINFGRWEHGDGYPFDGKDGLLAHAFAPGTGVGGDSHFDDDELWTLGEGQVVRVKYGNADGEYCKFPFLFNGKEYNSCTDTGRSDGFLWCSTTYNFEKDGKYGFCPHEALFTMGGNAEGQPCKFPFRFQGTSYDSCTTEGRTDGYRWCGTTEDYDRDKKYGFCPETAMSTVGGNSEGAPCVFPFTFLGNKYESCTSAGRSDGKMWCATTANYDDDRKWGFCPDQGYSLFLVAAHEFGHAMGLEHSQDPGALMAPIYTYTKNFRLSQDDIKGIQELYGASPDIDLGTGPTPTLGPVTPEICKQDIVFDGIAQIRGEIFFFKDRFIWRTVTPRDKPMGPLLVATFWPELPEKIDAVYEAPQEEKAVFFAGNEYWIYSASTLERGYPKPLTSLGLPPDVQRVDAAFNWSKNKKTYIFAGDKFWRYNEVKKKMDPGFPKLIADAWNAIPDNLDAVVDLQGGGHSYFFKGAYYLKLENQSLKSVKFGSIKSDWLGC

Mus musculus [14] = assay: Inhibition of human recombinant MMP12-mediated ear swelling in C57BL/6 mouse at 10 mg/kg, po bid administered 12 hrs and 2 hrs prior to challenge measured after 2 hrs relative to vehicle treated control; type: functional
[15] = AUC in C57BL/6 mouse at 10 mg/kg, po; type: ADME, organism-based; set-up: dose 10 mg/kg, route oral; settings: plasma
[16] = Cmax in C57BL/6 mouse at 10 mg/kg, po; type: ADME, organism-based; set-up: dose 10 mg/kg, route oral; settings: in vivo
Mus musculus [17] = assay: Inhibition of human recombinant MMP12-mediated ear swelling in C57BL/6 mouse at 30 mg/kg, po bid administered 12 hrs and 2 hrs prior to challenge measured after 2 hrs relative to vehicle treated control; type: functional
Salmonella typhimurium = assay: Mutagenicity in Salmonella Typhimurium by AMES test; type: toxicity, organism-based; settings: salmonella enterica subsp. enterica serovar typhimurium
[18] = Volume of distribution at steady state in C57BL/6 mouse at 2 mg/kg, iv; type: ADME, organism-based; set-up: dose 2 mg/kg, route intravenous; settings: in vivo, read-out: Vdss
[19] = target: Matrix metalloproteinase-9 (Homo sapiens, UniProt P14780); assay: Inhibition of human MMP-9
Sequence of Matrix metalloproteinase-9 (P14780 whole entry): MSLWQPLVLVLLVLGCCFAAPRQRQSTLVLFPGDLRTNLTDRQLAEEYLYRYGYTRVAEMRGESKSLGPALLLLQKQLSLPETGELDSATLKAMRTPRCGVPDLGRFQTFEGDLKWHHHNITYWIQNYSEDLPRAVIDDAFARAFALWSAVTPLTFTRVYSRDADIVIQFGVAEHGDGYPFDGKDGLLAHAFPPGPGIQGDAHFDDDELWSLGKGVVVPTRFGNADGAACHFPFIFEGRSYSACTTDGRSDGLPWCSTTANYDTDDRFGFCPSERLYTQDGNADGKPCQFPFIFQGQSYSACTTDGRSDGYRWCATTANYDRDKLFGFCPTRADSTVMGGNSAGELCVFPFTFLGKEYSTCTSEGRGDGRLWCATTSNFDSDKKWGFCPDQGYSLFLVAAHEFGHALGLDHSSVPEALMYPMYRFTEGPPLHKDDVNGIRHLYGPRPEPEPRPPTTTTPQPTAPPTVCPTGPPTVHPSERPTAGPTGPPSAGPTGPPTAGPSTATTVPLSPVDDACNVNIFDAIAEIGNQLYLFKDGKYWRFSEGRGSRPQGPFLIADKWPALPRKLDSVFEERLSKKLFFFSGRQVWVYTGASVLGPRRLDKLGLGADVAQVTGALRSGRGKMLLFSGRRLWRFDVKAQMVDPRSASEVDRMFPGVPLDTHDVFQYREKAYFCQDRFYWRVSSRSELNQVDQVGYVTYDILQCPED

Matrilysin = target: T1, Matrilysin (Homo sapiens, UniProt P09237); assay: Inhibition of human MMP-7
T1 sequence (P09237 whole entry): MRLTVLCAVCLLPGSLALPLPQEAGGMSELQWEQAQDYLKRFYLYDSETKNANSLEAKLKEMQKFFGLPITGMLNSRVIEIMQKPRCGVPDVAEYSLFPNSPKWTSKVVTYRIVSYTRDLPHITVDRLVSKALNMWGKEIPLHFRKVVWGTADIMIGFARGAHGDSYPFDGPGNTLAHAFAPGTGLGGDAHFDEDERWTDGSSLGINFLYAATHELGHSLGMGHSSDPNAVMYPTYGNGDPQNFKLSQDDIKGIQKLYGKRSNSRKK

Mus musculus [20] = assay: Inhibition of human recombinant MMP12-mediated ear swelling in C57BL/6 mouse at 3 mg/kg, po bid administered 12 hrs and 2 hrs prior to challenge measured after 2 hrs relative to vehicle treated control; type: functional
[21] = Clearance in C57BL/6 mouse at 2 mg/kg, iv; type: ADME, organism-based; set-up: dose 2 mg/kg, route intravenous; settings: in vivo
[22] = Aqueous solubility of the compound at pH 7.4; type: physicochemical; settings: buffer
Mus musculus [23] = assay: Inhibition of human recombinant MMP12-induced lung inflammation in po dosed C57BL/6 mouse assessed as minimum effective dose for reduction in Bronchoalveolar Lavage inflammation administered bid at 2 hrs prior to and 12 hrs post challenge measured 24 hrs after last challenge; type: functional; settings: C57BL/6, po, read-out: MED
[24] = target: Macrophage metalloelastase (Homo sapiens, UniProt P39900); assay: Inhibition of human MMP-12
Sequence of Macrophage metalloelastase (Homo sapiens, UniProt P39900) (P39900 whole entry): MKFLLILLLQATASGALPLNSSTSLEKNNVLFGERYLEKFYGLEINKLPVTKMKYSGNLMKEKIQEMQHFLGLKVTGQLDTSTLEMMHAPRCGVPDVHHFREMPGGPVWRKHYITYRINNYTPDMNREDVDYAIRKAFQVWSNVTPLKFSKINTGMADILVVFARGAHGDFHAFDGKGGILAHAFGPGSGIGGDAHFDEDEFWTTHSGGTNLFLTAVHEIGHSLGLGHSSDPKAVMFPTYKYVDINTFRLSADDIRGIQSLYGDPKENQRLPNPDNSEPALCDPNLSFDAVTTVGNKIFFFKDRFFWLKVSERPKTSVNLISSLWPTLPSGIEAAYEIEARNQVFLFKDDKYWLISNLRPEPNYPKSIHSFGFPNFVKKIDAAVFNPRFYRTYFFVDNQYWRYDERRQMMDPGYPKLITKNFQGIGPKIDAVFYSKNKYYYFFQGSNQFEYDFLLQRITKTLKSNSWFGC

## Cc1ccc(-c2ccc3oc4cc(S(=O)(=O)N[C@H](C(=O)O)C(C)C)ccc4c3c2)s1
Homo sapiens [1]
  Ratio IC50: 1200
Homo sapiens [2]
  Ratio IC50: 125

## CC(C)[C@H](NS(=O)(=O)c1ccc2c(c1)oc1ccc(-c3noc(C4CCC4)n3)cc12)C(=O)O
Homo sapiens [2]
  Ratio IC50: 44

## CC(C)[C@H](NS(=O)(=O)c1ccc2c(c1)oc1ccc(-c3noc(C4CC4)n3)cc12)C(=O)O
Homo sapiens [2]
  Ratio IC50: 56

## CC(C)[C@H](NS(=O)(=O)c1ccc2c(c1)oc1ccc(-n3cncn3)cc12)C(=O)O
Homo sapiens [1]
  Ratio IC50: 34
Homo sapiens [2]
  Ratio IC50: 4

## CC(C)[C@H](NS(=O)(=O)c1ccc2c(c1)oc1ccc(-c3nccs3)cc12)C(=O)O
[3]
  IC50: 57 nM
Homo sapiens [1]
  Ratio IC50: 1980
Homo sapiens [2]
  Ratio IC50: 154
[4]
  bioavailability: 63%
Mus musculus [5]
  inhibition in vivo at 10 mg/kg: > 50%
Mus musculus [6]
  inhibition in vivo at 5 mg/kg: > 50%
[7]
  IC50: 70 nM
[8]
  IC50: 5.4 nM
[9]
  half-life: 2.9 h
Neutrophil collagenase
  IC50: 154 nM
[10]
  inhibition (INH): Not Active
[11]
  IC50: 244 nM
Collagenase 3
  IC50: 1980 nM
[12]
  IC50: 85 nM
Stromelysin-1
  IC50: 2530 nM
[13]
  IC50: 501 nM
Mus musculus [14]
  inhibition in vivo at 10 mg/kg: 38.6%
[15]
  AUC: 20300 ng·h/mL
[16]
  Cmax: 5550 ng/mL
Mus musculus [17]
  inhibition in vivo at 30 mg/kg: 65.2%
Salmonella typhimurium
  Activity: Non-toxic
[18]
  Vd: 0.8 L/kg
[19]
  IC50: 1970 nM
Matrilysin
  IC50: 57700 nM
Mus musculus [20]
  inhibition in vivo at 3 mg/kg: 24.9%
[21]
  clearance: 5 mL/min/kg
[22]
  solubility: 550 µg/mL (≈ 1280 µM)
Mus musculus [23]
  minimal effective dose: 5 mg/kg

## CC(C)[C@H](NS(=O)(=O)c1ccc2c(c1)oc1ccc(-c3noc(C4CCOC4)n3)cc12)C(=O)O (some centres undefined)
Homo sapiens [2]
  Ratio IC50: 100

## COC(=O)Nc1ccc2oc3cc(S(=O)(=O)N[C@H](C(=O)O)C(C)C)ccc3c2c1
Homo sapiens [1]
  Ratio IC50: 60

## CC(C)[C@H](NS(=O)(=O)c1ccc2c(c1)oc1ccc(-c3ccc(Cl)o3)cc12)C(=O)O
Homo sapiens [1]
  Ratio IC50: 1440
Homo sapiens [2]
  Ratio IC50: 70

## CC(C)c1nc(-c2ccc3oc4cc(S(=O)(=O)N[C@H](C(=O)O)C(C)C)ccc4c3c2)no1
Homo sapiens [2]
  Ratio IC50: 19

## CCc1nc(-c2ccc3oc4cc(S(=O)(=O)N[C@H](C(=O)O)C(C)C)ccc4c3c2)no1
Homo sapiens [2]
  Ratio IC50: 1.4

## CC(C)[C@H](NS(=O)(=O)c1ccc2c(c1)oc1ccc(-c3ccc[nH]3)cc12)C(=O)O
Homo sapiens [1]
  Ratio IC50: 525
Homo sapiens [2]
  Ratio IC50: 143

## CC(C)[C@H](NS(=O)(=O)c1ccc2c(c1)oc1ccc(-c3noc(C(F)(F)F)n3)cc12)C(=O)O
Homo sapiens [2]
  Ratio IC50: 45

## CC(C)[C@H](NS(=O)(=O)c1ccc2c(c1)oc1ccc(N3CCOCC3)cc12)C(=O)O
Homo sapiens [1]
  Ratio IC50: 154
Homo sapiens [2]
  Ratio IC50: 3

## Cc1cnc(-c2ccc3oc4cc(S(=O)(=O)N[C@H](C(=O)O)C(C)C)ccc4c3c2)s1
Homo sapiens [1]
  Ratio IC50: 460
Homo sapiens [2]
  Ratio IC50: 158

## CC(C)[C@H](NS(=O)(=O)c1ccc2c(c1)oc1ccc(-n3cccn3)cc12)C(=O)O
Homo sapiens [1]
  Ratio IC50: 37
Homo sapiens [2]
  Ratio IC50: 15

## CC(C)[C@H](NS(=O)(=O)c1ccc2c(c1)oc1ccc(-c3cccs3)cc12)C(=O)O
Homo sapiens [1]
  Ratio IC50: 1690
Homo sapiens [2]
  Ratio IC50: 100

## CC(C)[C@H](NS(=O)(=O)c1ccc2c(c1)oc1ccc(-c3noc(-c4ccccc4)n3)cc12)C(=O)O
Homo sapiens [2]
  Ratio IC50: 60

## CC(C)[C@H](NS(=O)(=O)c1ccc2c(c1)oc1ccc(-c3cc[nH]n3)cc12)C(=O)O
Homo sapiens [1]
  Ratio IC50: > 1130
Homo sapiens [2]
  Ratio IC50: > 2500
[24]
  IC50: < 1 nM

## CC(C)[C@H](NS(=O)(=O)c1ccc2c(c1)oc1ccc(N3CCN(C)CC3)cc12)C(=O)O
Homo sapiens [1]
  Ratio IC50: 38
Homo sapiens [2]
  Ratio IC50: 0.5

## CC(C)[C@H](NS(=O)(=O)c1ccc2c(c1)oc1ccc(-n3ccc(C(F)(F)F)n3)cc12)C(=O)O
Homo sapiens [1]
  Ratio IC50: 349
Homo sapiens [2]
  Ratio IC50: 44

## CC(C)[C@H](NS(=O)(=O)c1ccc2c(c1)oc1ccc(-c3ccoc3)cc12)C(=O)O
Homo sapiens [1]
  Ratio IC50: 900
Homo sapiens [2]
  Ratio IC50: 33

## CC(C)[C@H](NS(=O)(=O)c1ccc2c(c1)oc1ccc(N3CCNCC3)cc12)C(=O)O
Homo sapiens [1]
  Ratio IC50: 34
Homo sapiens [2]
  Ratio IC50: 2

## COCc1nc(-c2ccc3oc4cc(S(=O)(=O)N[C@H](C(=O)O)C(C)C)ccc4c3c2)no1
Homo sapiens [2]
  Ratio IC50: 10
